Experimental data from US20120114583A1, “USE OF DIHYDROQUERCETIN AND AT LEAST ONE AMINO ACID TO POSITIVELY INFLUENCE THE NATURAL PIGMENTATION PROCESS” (Henkel AG & Co. KGaA, priority 2009, published 2012).

Tests used:
Type in all cases: cell-based
ckit = assay: Differential gene expression of ckit by quantitative RT-PCR in organotypical hair follicle cell cultures; settings: for ckit expression, Mean: 48 h, dermal papilla cell 3D cultures, untreated control = 1
From the text: (§1) The ligands involved in melanogenesis, such as SCF or alpha-MSH (melanocyte stimulating hormone alpha) bind to different receptors, through which the corresponding signal is transmitted into the cell interior. The receptor for SCF is ckit, the receptor for alpha-MSH is MCR-1 (melanocortin receptor 1). Substances that bring about a change in the expression of MCR-1 and/or ckit can influence melanogenesis. If an induction (up-regulation or stimulation) of the gene expression of the corresponding receptors occurs, melanogenesis is assumed to be stimulated. Differential gene expression was determined by means of quantitative RT-PCR. After preparing three-dimensional organotypical hair follicle cell cultures from dermal papilla cells on microcarriers, they were incubated for 48 h with dihydroquercetin in two different concentrations. In order to perform PCR the RNA was first isolated from the organotypical cell cultures with the aid of an RNeasy Mini Kit from Qiagen and transcribed into cDNA by reverse transcription. In the subsequent PCR reaction, which is performed for each gene with the aid of gene-specific primers and which serves to amplify the required gene sections, the formation of PCR products is detected online via a fluorescence signal. The fluorescence signal is proportional to the amount of PCR product formed. The stronger the expression of a particular gene, the greater the amount of PCR product formed and the higher the fluorescence signal. To quantify the gene expression the untreated control is set to 1 and the expression of the gene to be determined is referenced thereto (x-times expression). […] Values greater than or equal to the 1.5 times expression or less than or equal to the 0.7 times expression of the untreated control are classed as being expressed in a tangentially differential manner.

[1] = test system: MCR1 (melanocortin receptor 1); assay: Differential gene expression of MCR1 by quantitative RT-PCR in organotypical hair follicle cell cultures; settings: for MCR1 expression, Mean: 48 h, dermal papilla cell 3D cultures, untreated control = 1
From the text: as §1

gp100 = assay: Differential gene expression of gp100 by quantitative RT-PCR in organotypical hair follicle cell cultures; settings: for gp100 expression, Mean: 48 h, dermal papilla cell 3D cultures, untreated control = 1
Experimental: Gp 100 is a protein that occurs in the membrane of melanosomes and stabilizes them. Since more melanin is produced in the cells following application of substances that positively influence melanogenesis, an increase in the melanosomes necessary for transport also occurs. A substance that induces the gene expression of gp100 is therefore a pigmentation-stimulating active ingredient. Differential gene expression was determined by means of quantitative RT-PCR. After preparing three-dimensional organotypical hair follicle cell cultures from dermal papilla cells on microcarriers, they were incubated for 48 h with dihydroquercetin in two different concentrations. In order to perform PCR the RNA was first isolated from the organotypical cell cultures with the aid of an RNeasy Mini Kit from Qiagen and transcribed into cDNA by reverse transcription. In the subsequent PCR reaction, which is performed for each gene with the aid of gene-specific primers and which serves to amplify the required gene sections, the formation of PCR products is detected online via a fluorescence signal. The fluorescence signal is proportional to the amount of PCR product formed. The stronger the expression of a particular gene, the greater the amount of PCR product formed and the higher the fluorescence signal. To quantify the gene expression the untreated control is set to 1 and the expression of the gene to be determined is referenced thereto (x-times expression). […] Values greater than or equal to the 1.5 times expression or less than or equal to the 0.7 times expression of the untreated control are classed as being expressed in a tangentially differential manner.

[2] = test system: hair follicle equivalents; assay: Melanin content in hair follicle equivalents; settings: for Melanin content d4 Mean: day 4; for Melanin content d7 Mean: day 7, untreated control 181
Experimental: In order to assess the melanin content, three-dimensional organotypical hair follicle cell cultures prepared from dermal papilla cells, hair follicle melanocytes and outer root sheath keratinocytes were treated with dihydroquercetin (10 μM and 100 μM) for 7 days. Untreated cell cultures served as a control. After 4 and 7 days respectively, the hair follicle equivalents were homogenized and the melanin extracted with NaOH (1M)+10% DMSO at 100° C. for 45 min. Aliquots of the specimens were then transferred to a 96-well plate and the extinction was measured at 492 nm. The rise in the melanin content from day 0 to day 7 was evaluated. All values were referenced to the untreated control on day 7 (=100%).

O=C1c2c(O)cc(O)cc2OC(c2ccc(O)c(O)c2)C1O (stereo not drawn) [Dihydroquercetin, 3,3′,4′,5,7-pentahydroxyflavanone]
ckit expression, Mean (ckit; 10 μM): 1.32 x-times expression
ckit expression (in words) (ckit; 100 μM): induced
ckit expression, Mean (ckit; 100 μM): 3.55 x-times expression
MCR1 expression, Mean ([1]; 10 μM): 2.56 x-times expression
MCR1 expression (in words) ([1]; 10 μM, significantly differential = >= 1.8 times or <= 0.5 times untreated control): expressed in a significantly differential manner
MCR1 expression (in words) ([1]; 100 μM): induced
MCR1 expression, Mean ([1]; 100 μM): 5.17 x-times expression
gp100 expression, Mean (gp100; 10 μM): 0.89 x-times expression
gp100 expression (in words) (gp100; 100 μM): induced
gp100 expression, Mean (gp100; 100 μM): 3.48 x-times expression
Melanin content d4 Mean ([2]; 10 μM): 100%
Melanin content d7 Mean ([2]; 10 μM): 254%
Melanin content d4 Mean ([2]; 100 μM): 100%
Melanin content d7 Mean ([2]; 100 μM): 161%
melanin synthesis in comparison to the control (in words) ([2]; both concentration levels tested (10 μM and 100 μM)): increased markedly
